What all share (type): cell-based
Assay [1] relates to MIA PaCa-2 human pancreatic cancer cells. Nature of the assay: MTT cell growth inhibition, MIAPaCa2. As to conditions: for IC50: Homo sapiens, read-out: IC50 for cell growth inhibition; for Enhanced Potency: ratio of IC50 NSAID/POSH-NSAID, fold-enhancement over parent, MIAPaCa2.
Assay [2] has as its system BxPC-3 human pancreatic cancer cells. As to the kind of experiment: MTT cell growth inhibition, BxPC3. As to conditions: for IC50: Homo sapiens, read-out: IC50 for cell growth inhibition; for Enhanced Potency: ratio of IC50 NSAID/POSH-NSAID, fold-enhancement over parent, BxPC3.
In assay [3] the test system is A549 human lung cancer cells. Nature of the assay: MTT cell growth inhibition, A549. The note with it: for IC50: Homo sapiens, read-out: IC50 for cell growth inhibition; for Enhanced Potency: ratio of IC50 NSAID/POSH-NSAID, fold-enhancement over parent, A549.
Assay [4] deals with LNCAP human prostate cancer cells. Nature of the assay: MTT cell growth inhibition, LNCAP. As to conditions: 24 h; for IC50: Homo sapiens, read-out: IC50 for cell growth inhibition; for Enhanced Potency: ratio of IC50 NSAID/POSH-NSAID, fold-enhancement over parent, LNCAP.
In assay [5] the test system is Jurkats human leukemia cells. Nature of the assay: MTT cell growth inhibition, Jurkat. The note with it: 24 h; for IC50: Homo sapiens, read-out: IC50 for cell growth inhibition; for Enhanced Potency: ratio of IC50 NSAID/POSH-NSAID, fold-enhancement over parent.
Assay [6] has as its system HT-29 human colon adenocarcinoma cells. Nature of the assay: MTT cell growth inhibition, HT-29. As to conditions: for IC50: Homo sapiens, read-out: IC50 for cell growth inhibition; for Enhanced Potency: ratio of IC50 NSAID/POSH-NSAID, fold-enhancement over parent, HT-29.
The subject of assay [7] is HCT-15 human colon adenocarcinoma cells. As to the kind of experiment: MTT cell growth inhibition, HCT 15. As to conditions: for IC50: Homo sapiens, read-out: IC50 for cell growth inhibition; for Enhanced Potency: ratio of IC50 NSAID/POSH-NSAID, fold-enhancement over parent, HCT 15.
In assay [8] the test system is SW-480 human colon adenocarcinoma cells. Nature of the assay: MTT cell growth inhibition, SW480. The note with it: for IC50: Homo sapiens, read-out: IC50 for cell growth inhibition; for Enhanced Potency: ratio of IC50 NSAID/POSH-NSAID, fold-enhancement over parent, SW480.
Setting [9] is: MIA PaCa-2, 24 h, Pancreas MIAPaCa2, mean ± SEM of three determinations.
[10] abbreviates: BXPC-3, 24 h, Pancreas BxPC3, mean ± SEM of three determinations.
Where [11] appears, read: 24 h, Lung A549, mean ± SEM of three determinations.
The mark [12] stands for this setting: Prostate LNCAP, mean ± SEM of three determinations.
[13] abbreviates: Leukemia Jurkat, mean ± SEM of three determinations.

Where two headings read alike, the source gives them in different places. A value given as a limit tells only on which side of the number the result lay.

A word on the IC50: it is the midpoint of a concentration-inhibition curve. As to `COc1ccc2cc([C@H](C)C(=O)O)ccc2c1` [NAP, naproxen, reference compound], the 50% inhibitory concentration (IC50) came to 3200 µM in assay [1] (setting [9]); 2600 µM in assay [2] (setting [10]); 2650 µM in assay [3] (setting [11]); 2990 µM in assay [4] (setting [12]); 2380 µM in assay [5] (setting [13]).

Take `CCOP(=O)(OCC)OCCSSCCOC(=O)C(C)c1ccc2cc(OC)ccc2c1` (stereo not drawn) [POSH-NAP]: the half-inhibitory concentration (IC50) in assay [6] (HT-29, 24 h) worked out at 0.15 µM; in assay [7] (HCT-15, 24 h), 0.12 µM; in assay [8] (SW480, 24 h), 0.18 µM; in assay [1] (MIA PaCa-2, 24 h), 0.088 µM; in assay [2] (BXPC-3, 24 h), 0.1 µM; in assay [3] (A549, 24 h) it was 0.16 µM. The IC50 in assay [4] (LNCaP) is 0.13 µM; in assay [5] (Jurkat), 0.17 µM. Further, the “Enhanced Potency” value was ~18,000 in assay [6] (24 h); ~24,000 in assay [7] (24 h); ~17,000 in assay [8] (24 h); ~36,000 in assay [1] (24 h); ~26,000 in assay [2] (24 h); ~16,000 in assay [3] (24 h). The “Enhanced Potency” value in assay [4] is ~25,000; in assay [5] (Jurkat), ~14,000.

With `CC(=O)Oc1ccccc1C(=O)O` [ASA, aspirin, reference compound], the half-inhibitory concentration (IC50) in assay [6] (24 h, Colon HT-29, mean ± SEM of three determinations) was over 5000 µM; in assay [7] (24 h, Colon HCT 15, mean ± SEM of three determinations) it was over 5000 µM; in assay [8] (24 h, Colon SW480, mean ± SEM of three determinations), over 5000 µM; in assay [1] (setting [9]), over 5000 µM; in assay [2] (setting [10]), over 5000 µM; in assay [3] (setting [11]), over 5000 µM. Besides, the 50% inhibitory concentration (IC50) in assay [4] (setting [12]) and in assay [5] (setting [13]) was over 5000 µM throughout.

Regarding `CCOP(=O)(OCC)OCCSSCCOC(=O)c1ccccc1OC(C)=O` [POSH-ASA], the half-maximal inhibitory concentration (IC50) in assay [6] (HT-29, 24 h) amounted to 0.082 µM; in assay [7] (HCT-15, 24 h), 0.075 µM; in assay [8] (SW480, 24 h), 0.092 µM; in assay [1] (MIA PaCa-2, 24 h), 0.082 µM; in assay [2] (BXPC-3, 24 h), 0.075 µM; in assay [3] (A549, 24 h) it was 0.083 µM. Also, the half-maximal inhibitory concentration (IC50) amounted to 0.075 µM in assay [4] (LNCaP) and 0.22 µM in assay [5] (Jurkat). For the same compound, the “Enhanced Potency” value in assay [6] (24 h) is on record as >60,000; in assay [7] (24 h), >65,000; in assay [8] (24 h) it was >50,000; in assay [1] (24 h), >60,000; in assay [2] (24 h), >65,000; in assay [3] (24 h) it was >60,000. Moreover, the “Enhanced Potency” value in assay [4] is given as >65,000; in assay [5] (Jurkat), >20,000.

The values above are taken from US10023555B2, “NSAIDs derivatives and uses thereof” (Research Foundation of The City University of New York, priority 2013, dated 2018).
